{"source": "patent US12661343B2", "about": "“Compositions containing nicotinamide and vitamin B6 and methods of using such compositions for promoting muscle growth” (SOCIETE DES PRODUITS NESTLE S.A., priority 2020, dated 2026)", "system": "Human primary myoblasts", "experiment": "Myogenic amplification and commitment of muscle stem cells (Pax7/MyoD staining, image quantification)", "assay_type": "cell-based", "conditions": "donors 1 and 2 pooled, dose response, 96 hours, normalized to total cell number, control DMSO 1%; for proportion of MyoD+ cells (differentiating), fold change compared to the control condition: FIG. 1B/2B", "method": "Human Skeletal Muscle Myoblasts were purchased from Lonza (https://bioscience.lonza.com). These cells were isolated from the upper arm or leg muscle tissue of normal donors and used after the second passage. Several donors were tested to ensure cell viability and purity before selecting the final donors, which are a person (refer thereafter as Donor 1), a person (refer thereafter as Donor 2) and a person (refer thereafter as Donor 3). Human primary myoblasts were seeded in 384 well plates at a density of 1′000 cells per well in skeletal muscle growth medium (SKM-M, AMSbio). For treatment, compounds were directly added to the myoblast cultures 16 hours after initial plating. All cultures were then grown for 96 hours. Cells were stained for Pax7 and MyoD expression using antibodies directed against Pax7 and MyoD and counterstained with Hoechst 33342 to visualize cell nuclei. Pax7+ cells are defined as cells that express Pax7 regardless of MyoD expression. […] Image acquisition was performed using the ImageXpress (Molecular Devices) platform. Custom module analysis based on Multi-Wavelength Cell Scoring of the MetaXpress software was used for quantification. *, **, ***, **** indicates difference from the control, One-way ANOVA, with p<0.05, p<0.01, p<0.001, p<0.0001, respectively. Data are presented as Mean+/−SEM. Human primary myoblasts from different donors (donor 1, donor 2 or donor 3) were seeded in 384 well plates at a density of 1′000 cells per well in skeletal muscle growth medium (SKM-M, AMSbio). For treatment, compounds were directly added to the myoblast cultures 16 hours after initial plating. All cultures were then grown for 96 hours. Cells were stained for Pax7 and MyoD expression using antibodies directed against Pax7 and MyoD and counterstained with Hoechst 33342 to visualize cell nuclei. Pax7+ cells are defined as cells that express Pax7 regardless of MyoD expression. […] Image acquisition was performed using the ImageXpress (Molecular Devices) platform. Custom module analysis based on Multi-Wavelength Cell Scoring of the MetaXpress software was used for quantification. […]"}
{"smiles": "NC(=O)c1cccnc1", "note": "[Nicotinamide]", "values": [{"measurement": "proportion of Pax7+ cells (amplifying), fold change compared to the control condition", "setting": "FIG. 1A/2A", "result": "increasing the proportion of both amplifying (Pax7+) and differentiating (MyoD+) cells in a dose dependent manner"}, {"measurement": "proportion of MyoD+ cells (differentiating), fold change compared to the control condition", "result": "increasing the proportion of both amplifying (Pax7+) and differentiating (MyoD+) cells in a dose dependent manner"}]}
{"smiles": "Cc1ncc(CO)c(CO)c1O", "note": "[Pyridoxine]", "values": [{"measurement": "proportion of MyoD+ cells (differentiating), fold change compared to the control condition", "result": "increasing the proportion of differentiating (MyoD+) cells in a dose dependent manner"}]}
